Several values for one entry are separate records, joined by “and”; a condition that tells them apart may be missing. Equal values may be shown once.
What was measured:
Mouse PK assay = assay type: in vivo, B6 female mice; conditions: for AUC / Cmax: female, B6, mouse, plasma; for AUC / Cmax / Mouse Cmin, po: po; for Cmax: read-out: Mouse Cmax, po ng-h/mL
Method in brief: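 Plasma levels were measured by HPLC with UV detection after acetonitrile precipitation, using extracted standards, in blood taken up to 4 h (0.5, 1, 2, 4 h) post-dose. Dosing: 50 mg/kg orally or intraperitoneally to two groups of four female B6 mice, vehicle PEG 400:acidified H2O 30:70 suspension.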

[1] = system: human umbilical vein endothelial cells (HUVEC); assay: HUVEC+VEGF proliferation assay; assay type: cell-based; conditions: Homo sapiens, HUVEC, 72 h, VEGF 6 ng/mL, MTT
Method in brief: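 Proliferation driven by VEGF (final 6 ng/mL) was quantified by MTT reduction (A595) 72 h after stimulation. Passage 3-4 HUVEC were starved for 24 h in 1% FBS F12K and given test agent 1 h before VEGF, with DMSO at 0.1% final.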

PDGFRβ = biological target: T1, PDGFRβ (Homo sapiens, UniProt P09619); assay: PAE-PDGFRβ phosphorylation in PAE-PDGFRB cells assay; assay type: cell-based; conditions: PAE cells overexpressing human PDGFRβ, PDGF-BB stimulated; read-out: PAE PDGFR autophos IC50
T1 construct: expressed in transfected cells; host or cells: porcine aorta endothelial (PAE) cells
Method in brief: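 PAE cells overexpressing human PDGFRβ, serum-starved 16 h (0.1% FBS), compound 1 h at 37° C (0.5% DMSO), then 1 μg/mL PDGF-BB with 2 mM Na3VO4 for 8 min. Receptor captured by anti-PDGFRβ, phosphotyrosine detected by HRP-PY20/TMB at 450 nm; IC50 by four-parameter fit.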

T1 sequence (P09619 33-1106): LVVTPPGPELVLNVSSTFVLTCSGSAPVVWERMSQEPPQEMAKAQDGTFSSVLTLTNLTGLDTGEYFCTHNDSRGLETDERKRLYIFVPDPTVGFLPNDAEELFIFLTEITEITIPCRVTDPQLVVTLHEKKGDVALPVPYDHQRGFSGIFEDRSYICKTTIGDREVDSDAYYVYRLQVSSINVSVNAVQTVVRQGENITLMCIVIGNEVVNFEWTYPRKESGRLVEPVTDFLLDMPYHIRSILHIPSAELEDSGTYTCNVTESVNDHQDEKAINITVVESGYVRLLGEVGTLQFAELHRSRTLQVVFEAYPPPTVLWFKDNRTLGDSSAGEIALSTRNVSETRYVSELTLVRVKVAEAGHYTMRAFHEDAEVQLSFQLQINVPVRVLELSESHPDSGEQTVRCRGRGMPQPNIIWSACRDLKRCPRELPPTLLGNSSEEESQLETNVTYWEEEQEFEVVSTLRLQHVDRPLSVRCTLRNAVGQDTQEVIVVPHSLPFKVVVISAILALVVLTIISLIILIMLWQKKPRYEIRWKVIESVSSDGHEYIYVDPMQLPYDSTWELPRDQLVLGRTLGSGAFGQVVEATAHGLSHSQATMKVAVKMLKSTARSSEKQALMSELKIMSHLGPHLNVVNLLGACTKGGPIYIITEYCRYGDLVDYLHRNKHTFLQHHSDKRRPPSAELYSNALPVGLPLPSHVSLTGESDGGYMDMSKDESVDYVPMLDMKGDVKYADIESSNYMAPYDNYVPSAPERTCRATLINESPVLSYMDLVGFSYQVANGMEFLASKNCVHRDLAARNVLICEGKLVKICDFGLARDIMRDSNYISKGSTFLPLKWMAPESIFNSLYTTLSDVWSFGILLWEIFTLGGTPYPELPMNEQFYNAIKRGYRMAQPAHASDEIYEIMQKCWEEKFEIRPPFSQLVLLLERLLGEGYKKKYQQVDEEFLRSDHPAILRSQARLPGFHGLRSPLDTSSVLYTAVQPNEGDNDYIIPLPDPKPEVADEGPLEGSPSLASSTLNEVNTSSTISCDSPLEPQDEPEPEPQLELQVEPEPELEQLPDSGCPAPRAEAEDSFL

With `Cc1cc2cc(Nc3ccnc4cc(C(=O)N5CCC[C@H]5CO)sc34)ccc2n1C(=O)NC1CC1` [Example 2e, 5-(2-[(S)-2-(hydroxymethyl)pyrrolidine-1-carbonyl]thieno[3,2-b]pyridin-7-ylamino)-2-methylindole-1-carboxylic acid cyclopropylamide] the AUC (Mouse PK assay; 50 mg/kg) was 43 ng·h/mL, the Cmax (Mouse PK assay; 50 mg/kg, p.o., 50 mg/kg) was 28 ng/mL and the “Mouse Cmin, po” value (Mouse PK assay) was 0 ng/mL. The IC50 [1] was 0.5 nM and the IC50 (PDGFRβ) was over 1000 nM.
With `CNC(=O)n1c(C)cc2cc(Nc3ccnc4cc(-c5nc(C(C)(C)O)cs5)sc34)ccc21` [Example 3a, 5-{2-[4-(1-Hydroxy-1-methyl-ethyl)-thiazol-2-yl]-thieno[3,2-b]pyridin-7-ylamino}-2-methyl-indole-1-carboxylic acid methylamide] the AUC (Mouse PK assay; 50 mg/kg) was 10300 ng·h/mL, the Cmax (Mouse PK assay; 50 mg/kg, p.o., 50 mg/kg) was 3950 ng/mL and the “Mouse Cmin, po” value (Mouse PK assay) was 408 ng/mL. For the same compound, the IC50 [1] was 0.245 nM and the IC50 (PDGFRβ) was 84 nM and 99 nM.
In the case of `CCOC(=O)c1csc(-c2cc3nccc(Nc4ccc5c(c4)cc(C)n5C(=O)NC)c3s2)n1` [Example 3c, 2-[7-(2-Methyl-1-methylcarbamoyl-1H-indol-5-ylamino)-thieno[3,2-b]pyridin-2-yl]-thiazole-4-carboxylic acid ethyl ester], the Mouse Cmax, po ng/mL (Mouse PK assay; p.o., 50 mg/kg) is reported as 0 ng/mL, the “Mouse Cmin, po” value (Mouse PK assay) is reported as 0 ng/mL and the IC50 [1] is reported as 2.33 nM. It also gave an IC50 (PDGFRβ) of 631 nM.
In the case of `CNC(=O)n1c(C)cc2cc(Nc3cccc4cc(C(=O)N5C[C@H](OC)C[C@H]5CO)sc34)ccc21` [Example 3f, 5-[2-((2S,4R)-2-Hydroxymethyl-4-methoxy-pyrrolidine-1-carbonyl)-benzo[b]thiophen-7-ylamino]-2-methyl-indole-1-carboxylic acid methylamide], the AUC (Mouse PK assay; 50 mg/kg) is reported as 44 ng·h/mL, the Cmax (Mouse PK assay; 50 mg/kg, p.o., 50 mg/kg) is reported as 24 ng/mL and the “Mouse Cmin, po” value (Mouse PK assay) is reported as 2 ng/mL. It also gave an IC50 [1] of 3.99 nM and an IC50 (PDGFRβ) of over 1000 nM.
For `CO[C@@H]1C[C@@H](CO)N(C(=O)c2cc3cccc(Nc4ccc5c(c4)cc(C)n5C(=O)NC4CC4)c3s2)C1` [Example 3g, 5-[2-((2S,4R)-2-Hydroxymethyl-4-methoxy-pyrrolidine-1-carbonyl)-benzo[b]thiophen-7-ylamino]-2-methyl-indole-1-carboxylic acid cyclopropylamide], the AUC (Mouse PK assay; 50 mg/kg) was 46 ng·h/mL, the Cmax (Mouse PK assay; 50 mg/kg, p.o., 50 mg/kg) was 19 ng/mL and the “Mouse Cmin, po” value (Mouse PK assay) was 2 ng/mL. It also gave an IC50 [1] of 0.44 nM and an IC50 (PDGFRβ) of over 1000 nM.
For `CNC(=O)n1c(C)cc2cc(Oc3ccnc4cc(C(=O)N5C[C@H](OC)C[C@H]5CO)sc34)ccc21` [Example 3o, 5-[2-(2-Hydroxymethyl-4-methoxy-pyrrolidine-1-carbonyl)-thieno[3,2-b]pyridin-7-yloxy]-2-methyl-indole-1-carboxylic acid methylamide], the AUC (Mouse PK assay; 50 mg/kg) was 2880 ng·h/mL, the Cmax (Mouse PK assay; 50 mg/kg, p.o., 50 mg/kg) was 2820 ng/mL and the “Mouse Cmin, po” value (Mouse PK assay) was 20 ng/mL. For the same compound, the IC50 [1] was 0.24 nM and the IC50 (PDGFRβ) was 599 nM and 126 nM.
In the case of `CNC(=O)n1c(C)cc2cc(Oc3ccnc4cc(C(=O)N5CCC[C@H]5COC)sc34)ccc21` [Example 4a, 5-(2-[(S)-2-(methoxymethyl)pyrrolidine-1-carbonyl]thieno[3,2-b]pyridin-7-yloxy)-2-methylindole-1-carboxylic acid methylamide], the AUC (Mouse PK assay; 50 mg/kg) is reported as 703 ng·h/mL, the Cmax (Mouse PK assay; 50 mg/kg, p.o., 50 mg/kg) is reported as 575 ng/mL and the “Mouse Cmin, po” value (Mouse PK assay) is reported as 3 ng/mL. For the same compound, the IC50 [1] was 0.2 nM and the IC50 (PDGFRβ) was 16.5 nM.
In the case of `CNC(=O)n1c(C)cc2cc(Oc3ccnc4cc(C(=O)N5CCC[C@@H]5COC)sc34)ccc21` [Example 4e, 5-[2-(2R-Methoxymethyl-pyrrolidine-1-carbonyl)-thieno[3,2-b]pyridin-7-yloxy]-2-methyl-indole-1-carboxylic acid methylamide], the AUC (Mouse PK assay; 50 mg/kg) is reported as 5540 ng·h/mL, the Cmax (Mouse PK assay; 50 mg/kg, p.o., 50 mg/kg) is reported as 3790 ng/mL and the “Mouse Cmin, po” value (Mouse PK assay) is reported as 23 ng/mL. The IC50 [1] was 0.6 nM and the IC50 (PDGFRβ) was 16.7 nM.
In the case of `C#CCNC(=O)n1c(C)cc2cc(Oc3ccnc4cc(C(=O)N5CC[C@H](OC)C5)sc34)ccc21` [Example 4f, 5-[2-(3S-Methoxy-pyrrolidine-1-carbonyl)-thieno[3,2-b]pyridin-7-yloxy]-2-methyl-indole-1-carboxylic acid prop-2-ynylamide], the AUC (Mouse PK assay; 50 mg/kg) is reported as 15600 ng·h/mL, the Cmax (Mouse PK assay; 50 mg/kg, p.o., 50 mg/kg) is reported as 8840 ng/mL and the “Mouse Cmin, po” value (Mouse PK assay) is reported as 112 ng/mL. The IC50 [1] was 0.057 nM and the IC50 (PDGFRβ) was 14 nM.
For `CNC(=O)n1c(C)cc2cc(Oc3ccnc4cc(C(=O)N5CC[C@H](OC)C5)sc34)ccc21` [Example 4g, 5-[2-(3S-Methoxy-pyrrolidine-1-carbonyl)-thieno[3,2-b]pyridin-7-yloxy]-2-methyl-indole-1-carboxylic acid methylamide], the AUC (Mouse PK assay; 50 mg/kg) was 3620 ng·h/mL, the Cmax (Mouse PK assay; 50 mg/kg, p.o., 50 mg/kg) was 2280 ng/mL and the “Mouse Cmin, po” value (Mouse PK assay) was 20 ng/mL. It also gave an IC50 [1] of 0.139 nM and an IC50 (PDGFRβ) of 10.5 nM.
For `CO[C@H]1CCN(C(=O)c2cc3nccc(Oc4ccc5c(c4)cc(C)n5C(=O)NC4CC4)c3s2)C1` [Example 4h, 5-[2-(3S-Methoxy-pyrrolidine-1-carbonyl)-thieno[3,2-b]pyridin-7-yloxy]-2-methyl-indole-1-carboxylic acid cyclopropylamide], the AUC (Mouse PK assay; 50 mg/kg) was 2600 ng·h/mL, the Cmax (Mouse PK assay; 50 mg/kg, p.o., 50 mg/kg) was 657 ng/mL and the “Mouse Cmin, po” value (Mouse PK assay) was 161 ng/mL. The IC50 [1] was 0.65 nM and the IC50 (PDGFRβ) was 19 nM.
In the case of `CNC(=O)n1c(C)cc2cc(Oc3ccnc4cc(C(=O)N5CC[C@@H](OC)C5)sc34)ccc21` [Example 4j, 5-[2-(3R-Methoxy-pyrrolidine-1-carbonyl)-thieno[3,2-b]pyridin-7-yloxy]-2-methyl-indole-1-carboxylic acid methylamide], the AUC (Mouse PK assay; 50 mg/kg) is reported as 5080 ng·h/mL, the Cmax (Mouse PK assay; 50 mg/kg, p.o., 50 mg/kg) is reported as 3430 ng/mL and the “Mouse Cmin, po” value (Mouse PK assay) is reported as 32 ng/mL. For the same compound, the IC50 [1] was 0.088 nM and the IC50 (PDGFRβ) was 10 nM and 13 nM.
In the case of `C#CCNC(=O)n1c(C)cc2cc(Oc3ccnc4cc(C(=O)N5CC[C@@H](OC)C5)sc34)ccc21` [Example 4l, 5-[2-(3R-Methoxy-pyrrolidine-1-carbonyl)-thieno[3,2-b]pyridin-7-yloxy]-2-methyl-indole-1-carboxylic acid prop-2-ynylamide], the AUC (Mouse PK assay; 50 mg/kg) is reported as 321000 ng·h/mL, the Cmax (Mouse PK assay; 50 mg/kg, p.o., 50 mg/kg) is reported as 11300 ng/mL and the “Mouse Cmin, po” value (Mouse PK assay) is reported as 9020 ng/mL. It also gave an IC50 [1] of 0.176 nM and an IC50 (PDGFRβ) of 15 nM.
With `CNC(=O)n1c(C)cc2cc(Oc3ccnc4cc(C(=O)N5CC[C@@H](O)C5)sc34)ccc21` [Example 4n, 5-[2-(3R-Hydroxy-pyrrolidine-1-carbonyl)-thieno[3,2-b]pyridin-7-yloxy]-2-methyl-indole-1-carboxylic acid methylamide] the AUC (Mouse PK assay; 50 mg/kg) was 1850 ng·h/mL, the Cmax (Mouse PK assay; 50 mg/kg, p.o., 50 mg/kg) was 1110 ng/mL and the “Mouse Cmin, po” value (Mouse PK assay) was 45 ng/mL. The IC50 [1] was 0.042 nM and the IC50 (PDGFRβ) was 5.8 nM.
In the case of `C#CCNC(=O)n1c(C)cc2cc(Oc3ccnc4cc(C(=O)N5CC[C@@H](O)C5)sc34)ccc21` [Example 4o, 5-[2-(3R-Hydroxy-pyrrolidine-1-carbonyl)-thieno[3,2-b]pyridin-7-yloxy]-2-methyl-indole-1-carboxylic acid prop-2-ynylamide], the AUC (Mouse PK assay; 50 mg/kg) is reported as 28500 ng·h/mL, the Cmax (Mouse PK assay; 50 mg/kg, p.o., 50 mg/kg) is reported as 5070 ng/mL and the “Mouse Cmin, po” value (Mouse PK assay) is reported as 825 ng/mL. The IC50 [1] was 0.071 nM and the IC50 (PDGFRβ) was 9 nM.
For `Cc1cc2cc(Oc3ccnc4cc(C(=O)N5CC[C@@H](O)C5)sc34)ccc2n1C(=O)NC1CC1` [Example 4p, 5-[2-(3R-Hydroxy-pyrrolidine-1-carbonyl)-thieno[3,2-b]pyridin-7-yloxy]-2-methyl-indole-1-carboxylic acid cyclopropylamide], the AUC (Mouse PK assay; 50 mg/kg) was 4630 ng·h/mL, the Cmax (Mouse PK assay; 50 mg/kg, p.o., 50 mg/kg) was 2710 ng/mL and the “Mouse Cmin, po” value (Mouse PK assay) was 68 ng/mL. It also gave an IC50 [1] of 0.128 nM and an IC50 (PDGFRβ) of 4 nM.
In the case of `C#CCNC(=O)n1c(C)cc2cc(Oc3ccnc4cc(C(=O)N5CCC[C@@H]5CO)sc34)ccc21` [Example 8q, 5-[2-(2R-Hydroxymethyl-pyrrolidine-1-carbonyl)-thieno[3,2-b]pyridin-7-yloxy]-2-methyl-indole-1-carboxylic acid prop-2-ynylamide], the AUC (Mouse PK assay; 50 mg/kg) is reported as 31300 ng·h/mL, the Cmax (Mouse PK assay; 50 mg/kg, p.o., 50 mg/kg) is reported as 10400 ng/mL and the “Mouse Cmin, po” value (Mouse PK assay) is reported as 1297 ng/mL. For the same compound, the IC50 [1] was 0.19 nM and the IC50 (PDGFRβ) was 29 nM and 13 nM.
For `CCCNC(=O)n1c(C)cc2cc(Oc3ccnc4cc(C(=O)N5CC[C@H](O)C5)sc34)ccc21` [Example 9i, 5-[2-(3S-Hydroxy-pyrrolidine-1-carbonyl)-thieno[3,2-b]pyridin-7-yloxy]-2-methyl-indole-1-carboxylic acid propylamide], the AUC (Mouse PK assay; 50 mg/kg) was 9480 ng·h/mL, the Cmax (Mouse PK assay; 50 mg/kg, p.o., 50 mg/kg) was 2320 ng/mL and the “Mouse Cmin, po” value (Mouse PK assay) was 461 ng/mL. It also gave an IC50 [1] of 0.37 nM and an IC50 (PDGFRβ) of 36 nM.
For `Cc1cc2cc(Oc3ccnc4cc(C(=O)N5CC[C@H](O)C5)sc34)ccc2n1C(=O)NCCO` [Example 9k, 5-[2-(3S-Hydroxy-pyrrolidine-1-carbonyl)-thieno[3,2-b]pyridin-7-yloxy]-2-methyl-indole-1-carboxylic acid (2-hydroxy-ethyl)-amide], the AUC (Mouse PK assay; 50 mg/kg) was 1100 ng·h/mL, the Cmax (Mouse PK assay; 50 mg/kg, p.o., 50 mg/kg) was 371 ng/mL and the “Mouse Cmin, po” value (Mouse PK assay) was 43 ng/mL. For the same compound, the IC50 [1] was 0.49 nM and the IC50 (PDGFRβ) was 274 nM.
In the case of `Cc1cc2cc(Oc3ccnc4cc(C(=O)N5CC[C@H](O)C5)sc34)ccc2n1C(=O)NCCCO` [Example 9l, 5-[2-(3S-Hydroxy-pyrrolidine-1-carbonyl)-thieno[3,2-b]pyridin-7-yloxy]-2-methyl-indole-1-carboxylic acid (3-hydroxy-propyl)-amide], the AUC (Mouse PK assay; 50 mg/kg) is reported as 138 ng·h/mL, the Cmax (Mouse PK assay; 50 mg/kg, p.o., 50 mg/kg) is reported as 56 ng/mL and the “Mouse Cmin, po” value (Mouse PK assay) is reported as 4 ng/mL. It also gave an IC50 [1] of 0.27 nM and an IC50 (PDGFRβ) of 216 nM.
